Active and inactive are the calls of the source. The calls are words filed in the database; no cut-off is given here. Residues, ends and D or L forms follow the SMILES beside them. *: point of attachment. X1 = O=c1nc(N*)ccn1[C@@H]1O[C@H](CO)[C@@H](O)C1(F)F
How the values were obtained:
[1] = Drug uptake in mouse B16F10 cells using 5,6-carboxyfluorescein-labeled compound at 20 ug/ml after 4 hrs by DAPI staining-based fluorescence microscopic method; type: ADME, cell-based; settings: b16-f10, 4 h
B16-F10 [2] = test: Ratio of drug uptake in mouse B16F10 cells at 20 ug/ml after 4 hrs by flow cytometric method to drug uptake in mouse B16F10 cells at 20 ug/ml after 30 mins by flow cytometric method; type: ADME, cell-based
[3] = Hemolytic activity in rat erythrocytes up to 50 uM after 1 hr relative to control; type: ADME, cell-based, Erythrocyte; settings: read-out: Activity
[4] = Hemolytic activity in rat erythrocytes at 100 uM after 1 hr relative to control; type: ADME, cell-based, Erythrocyte; settings: read-out: Activity
[5] = Stability in saline assessed as parent compond remaining using 99mTc(CO)3-labeled compound after 24 hrs by TLC method; type: physicochemical; settings: read-out: Stability
[6] = Metabolic stability in rat serum assessed as parent compound remaining using 99mTc(CO)3-labeled compound after 24 hrs by TLC method; type: ADME, cell-free; settings: read-out: Stability
[7] = Drug degradation in histidine solution using 99mTc(CO)3-labeled compound after 24 hrs by TLC method; type: physicochemical; settings: read-out: Drug degradation
[8] = n-Octanol-phosphate buffer partition co-efficient, log P of 99mTc(CO)3-labeled compound at 2 to 3 KBq after 1 min by gamma scintillation counting method; type: physicochemical
[9] = Drug uptake in mouse B16F10 cells using 99mTc(CO)3-labeled compound at 15 to 20 MBq/ml after 30 mins by gamma scintillation counting method relative to total added activity; type: ADME, cell-based; settings: b16-f10, 0.5 h
[10] = Drug uptake in mouse B16F10 cells using 99mTc(CO)3-labeled compound at 15 to 20 MBq/ml after 240 mins by gamma scintillation counting method relative to total added activity; type: ADME, cell-based; settings: b16-f10, 4 h
[11] = Drug uptake in mouse B16F10 cells using 99mTc(CO)3-labeled compound at 15 to 20 MBq/ml after 30 mins by gamma scintillation counting method; type: ADME, cell-based; settings: b16-f10, 0.5 h
[12] = Drug uptake in heart of Balb/c mouse allografted with mouse B16F10 cells using 99mTc(CO)3-labeled compound at 10 to 12 MBq/kg, iv measured at 2 hrs; type: ADME, organism-based; settings: in vivo
[13] = Drug uptake in blood of Balb/c mouse allografted with mouse B16F10 cells using 99mTc(CO)3-labeled compound at 10 to 12 MBq/kg, iv measured at 2 hrs; type: ADME, organism-based; settings: in vivo
[14] = Drug uptake in liver of Balb/c mouse allografted with mouse B16F10 cells using 99mTc(CO)3-labeled compound at 10 to 12 MBq/kg, iv measured at 2 hrs; type: ADME, organism-based; settings: in vivo
[15] = Drug uptake in lung of Balb/c mouse allografted with mouse B16F10 cells using 99mTc(CO)3-labeled compound at 10 to 12 MBq/kg, iv measured at 2 hrs; type: ADME, organism-based; settings: in vivo
[16] = Drug uptake in spleen of Balb/c mouse allografted with mouse B16F10 cells using 99mTc(CO)3-labeled compound at 10 to 12 MBq/kg, iv measured at 2 hrs; type: ADME, organism-based; settings: in vivo
[17] = Drug uptake in muscle of Balb/c mouse allografted with mouse B16F10 cells using 99mTc(CO)3-labeled compound at 10 to 12 MBq/kg, iv measured at 2 hrs; type: ADME, organism-based, Muscle tissue; settings: in vivo
[18] = Drug uptake in tumor muscle of Balb/c mouse allografted with mouse B16F10 cells using 99mTc(CO)3-labeled compound at 10 to 12 MBq/kg, iv measured at 2 hrs; type: ADME, organism-based; settings: in vivo
[19] = Drug uptake in kidney of Balb/c mouse allografted with mouse B16F10 cells using 99mTc(CO)3-labeled compound at 10 to 12 MBq/kg, iv measured at 2 hrs; type: ADME, organism-based; settings: in vivo
[20] = Drug uptake in intestine of Balb/c mouse allografted with mouse B16F10 cells using 99mTc(CO)3-labeled compound at 10 to 12 MBq/kg, iv measured at 2 hrs; type: ADME, organism-based; settings: in vivo
[21] = Drug uptake in stomach of Balb/c mouse allografted with mouse B16F10 cells using 99mTc(CO)3-labeled compound at 10 to 12 MBq/kg, iv measured at 2 hrs; type: ADME, organism-based; settings: in vivo
[22] = Drug uptake in urine of Balb/c mouse allografted with mouse B16F10 cells using 99mTc(CO)3-labeled compound at 10 to 12 MBq/kg, iv measured at 2 hrs; type: ADME, organism-based; settings: in vivo
[23] = Ratio of drug level in tumor to blood of Balb/c mouse allografted with mouse B16F10 cells using 99mTc(CO)3-labeled compound at 10 to 12 MBq/kg, iv measured at 2 hrs; type: ADME, organism-based, Tumor/tissue
[24] = Ratio of drug level in tumor to muscle of Balb/c mouse allografted with mouse B16F10 cells using 99mTc(CO)3-labeled compound at 10 to 12 MBq/kg, iv measured at 2 hrs; type: ADME, organism-based, Tumor/tissue; settings: in vivo
[25] = Drug uptake in heart of Balb/c mouse allografted with mouse B16F10 cells using 99mTc(CO)3-labeled compound at 10 to 12 MBq/kg, iv measured at 4 hrs; type: ADME, organism-based; settings: in vivo
[26] = Drug uptake in blood of Balb/c mouse allografted with mouse B16F10 cells using 99mTc(CO)3-labeled compound at 10 to 12 MBq/kg, iv measured at 4 hrs; type: ADME, organism-based; settings: in vivo
[27] = Drug uptake in liver of Balb/c mouse allografted with mouse B16F10 cells using 99mTc(CO)3-labeled compound at 10 to 12 MBq/kg, iv measured at 4 hrs; type: ADME, organism-based; settings: in vivo
[28] = Drug uptake in lung of Balb/c mouse allografted with mouse B16F10 cells using 99mTc(CO)3-labeled compound at 10 to 12 MBq/kg, iv measured at 4 hrs; type: ADME, organism-based; settings: in vivo
[29] = Drug uptake in spleen of Balb/c mouse allografted with mouse B16F10 cells using 99mTc(CO)3-labeled compound at 10 to 12 MBq/kg, iv measured at 4 hrs; type: ADME, organism-based; settings: in vivo
[30] = Drug uptake in muscle of Balb/c mouse allografted with mouse B16F10 cells using 99mTc(CO)3-labeled compound at 10 to 12 MBq/kg, iv measured at 4 hrs; type: ADME, organism-based, Muscle tissue; settings: in vivo
[31] = Drug uptake in tumor muscle of Balb/c mouse allografted with mouse B16F10 cells using 99mTc(CO)3-labeled compound at 10 to 12 MBq/kg, iv measured at 4 hrs; type: ADME, organism-based; settings: in vivo
[32] = Drug uptake in kidney of Balb/c mouse allografted with mouse B16F10 cells using 99mTc(CO)3-labeled compound at 10 to 12 MBq/kg, iv measured at 4 hrs; type: ADME, organism-based; settings: in vivo
[33] = Drug uptake in intestine of Balb/c mouse allografted with mouse B16F10 cells using 99mTc(CO)3-labeled compound at 10 to 12 MBq/kg, iv measured at 4 hrs; type: ADME, organism-based; settings: in vivo
[34] = Drug uptake in stomach of Balb/c mouse allografted with mouse B16F10 cells using 99mTc(CO)3-labeled compound at 10 to 12 MBq/kg, iv measured at 4 hrs; type: ADME, organism-based; settings: in vivo
[35] = Drug uptake in urine of Balb/c mouse allografted with mouse B16F10 cells using 99mTc(CO)3-labeled compound at 10 to 12 MBq/kg, iv measured at 4 hrs; type: ADME, organism-based; settings: in vivo
[36] = Ratio of drug level in tumor to blood of Balb/c mouse allografted with mouse B16F10 cells using 99mTc(CO)3-labeled compound at 10 to 12 MBq/kg, iv measured at 4 hrs; type: ADME, organism-based, Tumor/tissue
[37] = Ratio of drug level in tumor to muscle of Balb/c mouse allografted with mouse B16F10 cells using 99mTc(CO)3-labeled compound at 10 to 12 MBq/kg, iv measured at 4 hrs; type: ADME, organism-based, Tumor/tissue; settings: in vivo
[38] = Drug uptake in tumor of Balb/c mouse allografted with mouse B16F10 cells using 99mTc(CO)3-labeled compound at 4 to 8 MBq, iv measured at 4 hrs by scintigraphic imaging method; type: ADME, organism-based, Neoplasm; settings: in vivo
B16-F10 [39] = test: Cytotoxicity against mouse B16F10 cells assessed as decrease in cell viability after 72 hrs by MTT assay; type: functional, cell-based; settings: B16-F10, 72 h
[40] = Drug uptake in kidney of Balb/c mouse allografted with mouse B16F10 cells using 99mTc(CO)3-labeled compound at 4 to 8 MBq, iv measured at 4 hrs by scintigraphic imaging method; type: ADME, organism-based; settings: in vivo
[41] = Drug uptake in liver of Balb/c mouse allografted with mouse B16F10 cells using 99mTc(CO)3-labeled compound at 4 to 8 MBq, iv measured at 4 hrs by scintigraphic imaging method; type: ADME, organism-based; settings: in vivo
[42] = Drug uptake in gastrointestinal tract of Balb/c mouse allografted with mouse B16F10 cells using 99mTc(CO)3-labeled compound at 4 to 8 MBq, iv measured at 4 hrs by scintigraphic imaging method; type: ADME, organism-based; settings: in vivo
[43] = Drug uptake in urinary bladder of Balb/c mouse allografted with mouse B16F10 cells using 99mTc(CO)3-labeled compound at 4 to 8 MBq, iv measured at 4 hrs by scintigraphic imaging method; type: ADME, organism-based; settings: in vivo
[44] = Drug uptake in mouse B16F10 cells using 99mTc(CO)3-labeled compound at 15 to 20 MBq/ml after 240 mins by gamma scintillation counting method; type: ADME, cell-based; settings: b16-f10, 4 h
B16-F10 [45] = test: Induction of apoptosis in mouse B16F10 cells at IC50 after 72 hrs by annexin V-FITC/propidium iodide staining-based flow cytometric method relative to control; type: functional
B16-F10 [46] = test: Induction of apoptosis in mouse B16F10 cells assessed as necrotic cells at IC50 after 72 hrs by annexin V-FITC/propidium iodide staining-based flow cytometric method relative to control; type: functional
B16-F10 [47] = test: Induction of apoptosis in mouse B16F10 cells assessed as nuclear fragmentation at IC50 after 72 hrs by DAPI staining-based fluorescence microscopic method; type: functional, cell-based
B16-F10 [48] = test: Antitumor activity against mouse B16F10 cells allografted in Balb/c mouse assessed as tumor growth inhibition at 25 mg/kg, iv administered thrice weekly for 21 days starting on day 10 post tumor implantation relative to control; type: functional; settings: read-out: TGI
Mus musculus = test: Toxicity in mouse B16F10 cells allografted Balb/c mouse assessed as effect on body weight at 25 mg/kg, iv administered thrice weekly for 21 days starting on day 10 post tumor implantation (reference value: 30.52 +/- 2.9 g); type: organism-based; settings: in vivo, 504 h

SMILES: N=C(N)NCCC[C@H](NC(=O)[C@@H](N)Cc1cnc[nH]1)C(=O)NCC(=O)N[C@@H](CC(=O)Nc1ccn([C@@H]2O[C@H](CO)[C@@H](O)C2(F)F)c(=O)n1)C(N)=O (H-HRGD(X1)-NH2)
- Drug uptake [1]: Active
- Ratio (B16-F10 [2]): 1.8
- hemolysis at 1 h [3]: 5 to 6%
- hemolysis at 1 h, 100 µM [4]: 7 to 9%
- remaining at 24 h [5]: ≥ 92%
- remaining at 24 h [6]: ≥ 92%
- degraded at 24 h [7]: 5%
- logP at 1 min [8]: -1.77
- Drug uptake [9]: 2.9%
- Drug uptake [10]: 4.99%
- Drug uptake [11]: 30.45%
- Drug uptake [12]: 0.07 % ID/g
- Drug uptake [13]: 1.13 %ID/ml
- Drug uptake [14]: 16.89 % ID/g
- Drug uptake [15]: 0.32 % ID/g
- Drug uptake [16]: 0.44 % ID/g
- Drug uptake [17]: 0.17 % ID/g
- Drug uptake [18]: 0.82 % ID/g
- Drug uptake [19]: 4.44 % ID/g
- Drug uptake [20]: 7.9 % ID/g
- Drug uptake [21]: 0.36 % ID/g
- Drug uptake [22]: 53.11 %ID/ml
- Kp at 2 h [23]: 0.72
- Ratio [24]: 4.66
- Drug uptake [25]: 0.05 % ID/g
- Drug uptake [26]: 0.88 %ID/ml
- Drug uptake [27]: 14.39 % ID/g
- Drug uptake [28]: 0.2 % ID/g
- Drug uptake [29]: 0.26 % ID/g
- Drug uptake [30]: 0.17 % ID/g
- Drug uptake [31]: 0.83 % ID/g
- Drug uptake [32]: 3.24 % ID/g
- Drug uptake [33]: 9.06 % ID/g
- Drug uptake [34]: 0.26 % ID/g
- Drug uptake [35]: 56.11 %ID/ml
- Kp at 4 h [36]: 0.94
- Ratio [37]: 4.89
- Drug uptake [38]: Not Active
- IC50 (B16-F10 [39]): 210 nM
- Drug uptake [40]: Active
- Drug uptake [41]: Active
- Drug uptake [42]: Active
- Drug uptake [43]: Active
- Drug uptake [44]: 65%

SMILES: Nc1ccn([C@@H]2O[C@H](CO)[C@@H](O)C2(F)F)c(=O)n1 [GEMCITABINE]
- IC50 (B16-F10 [39]): 260 nM
- Activity (B16-F10 [45]): 26%
- Activity (B16-F10 [46]): 12 - 14%
- Activity (B16-F10 [47]): Active
- inhibition in vivo at 25 mg/kg (B16-F10 [48]): 37%
- Activity (Mus musculus): 28.65 g

From ChEMBL document CHEMBL4257490, “Development of a peptide-based bifunctional chelator conjugated to a cytotoxic drug for the treatment of melanotic melanoma” (Medchemcomm, 2018)
